Experimental data: PMC8868346, “Novel Series of Dual NRF2 Inducers and Selective MAO-B Inhibitors for the Treatment of Parkinson’s Disease” (Antioxidants, 2022)
Like-named read-outs stand apart in the source and are kept apart here.

Tests used:
[1] = molecular target: T1, hrMAO-A (Homo sapiens, UniProt P21397); assay: Inhibition of monoamine oxidase A (Amplex UltraRed, tyramine); type: biochemical
T1 construct: purchased Sigma–Aldrich
T1 sequence (P21397 1-527): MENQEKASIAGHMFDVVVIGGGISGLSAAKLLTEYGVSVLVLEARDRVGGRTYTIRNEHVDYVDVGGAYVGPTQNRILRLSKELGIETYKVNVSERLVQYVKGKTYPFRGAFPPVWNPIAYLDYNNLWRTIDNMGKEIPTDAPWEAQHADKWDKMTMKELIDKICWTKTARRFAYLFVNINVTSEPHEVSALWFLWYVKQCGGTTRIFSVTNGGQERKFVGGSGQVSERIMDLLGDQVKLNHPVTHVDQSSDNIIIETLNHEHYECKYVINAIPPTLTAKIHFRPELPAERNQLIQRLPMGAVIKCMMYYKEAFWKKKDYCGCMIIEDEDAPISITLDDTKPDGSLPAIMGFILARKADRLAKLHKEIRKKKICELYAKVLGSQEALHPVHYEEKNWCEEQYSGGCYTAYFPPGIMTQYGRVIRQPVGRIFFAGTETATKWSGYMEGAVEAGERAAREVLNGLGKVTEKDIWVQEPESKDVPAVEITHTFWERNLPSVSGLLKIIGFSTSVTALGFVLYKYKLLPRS

[2] = test system: AREc32; conditions: MTT reduction
Method: AREc32 cells, shared by CR Wolf, were grown in Dulbecco’s modified Eagle medium (DMEM) with GlutaMAX (Gibco, Invitrogen, Madrid, Spain), supplemented with 10% (v/v) filtrated fetal bovine serum (FBS; Gibco, Invitrogen, Madrid, Spain), 1% of antibiotics penicillin-streptomycin, and geneticin (0.8 mg/mL G418; Gibco, Invitrogen, Madrid, Spain). […] They were recovered by centrifugation at 800 rpm for 10 min. Cells were used from the third to twelfth passage.
(§1) Basal absorbance was set to 100% and results were normalized to basal conditions.
(§2) Cytotoxicity. LD50 values in several cell cultures employed
(§3) Table S2. Cytotoxicity elicited by 10-18 compounds in SH-SY5Y, AREc32 and mixed pr imary glial cultures. Viability was measured as MTT reduction in presence of increasing concentrations of der ivatives. LD50 values were calcula ted from dose-response curves. Data are expr essed as mean ± SEM of at least 3 independent experiments.
(§4) 1.3. PAMPA control compounds (BBB permeability)
(§5) Table S3. Pr ediction of the BBB passive permeability of control compounds

[3] = test system: blood-brain barrier (passive diffusion); assay: in vitro; conditions: PAMPA, pH 7.4
Method: (§6) Briefly, permeability of the compounds was measured at an initial concentration of 100 µM, including positive and negative controls (Supplementary Data; Table S3). […] After 5 min, 180 µL of each compound solution in PBS (10 mM, pH 7.4) was added to determine their ability to pass the membrane (VD). The 96-well acceptor plate (Multiscreen, Millipore Corp., Madrid Spain) was loaded with 180 µL of PBS (VA). Then, the donor filter plate was carefully placed on the acceptor plate to form a sandwich-like system, which was left undisturbed for 4 h at room temperature. After incubation, the donor plate was removed and the absorbance at the maximum absorption wavelength for each compound was recorded in both the acceptor and donor wells (150 µL/well) using a UV plate reader SPECTROstar Nano (BMG Labtech, Ortenberg, Germany). Concentration of the compounds in the donor and acceptor plates and equilibrium concentration were calculated and expressed as permeability (Pe) according the Equation (1). Results are expressed as mean ± standard error of the mean (SEM) of at least three different experiments in duplicate:(1) logPe =log{C×−ln(1−[drug]acceptor/[drug]equilibrium)} where C=(VD×VA/(VD +VA)×Area×Time) .

[4] = test system: SH-SY5Y cells; assay: Neuroprotection in SH-SY5Y against 6-hydroxydopamine (MTT); type: cell-based, human; conditions: 6-OHDA 100 µM; compound 0.1 µM, 24 h pre- and 24 h co-incubation
Method: Cells were seeded at a density of 60,000 cells/well in 96-well transparent plates for 24 h. Then cells were pre-incubated with the corresponding compound at 0.1 μM. After 24 h, the medium was removed and replaced with 1% (v/v) FBS media containing the corresponding compound at 0.1 µM and the selected toxic stimuli, namely a mixture of rotenone and oligomycin A (R/O; 30/10 μM, respectively; Sigma–Aldrich, Spain) or 6-hydroxydopamine (100 µM; Sigma–Aldrich, Spain). […].

[5] = test system: SH-SY5Y; conditions: MTT reduction
Method: They were recovered by centrifugation at 800 rpm for 10 min. Cells from the third to twelfth passage were seeded at a density of 80,000 cells/well in 96-well plates for the neuroprotection studies.
as §1, §2, §3, §4, §5

[6] = test system: blood-brain barrier (passive diffusion); assay: Blood–brain barrier permeation assay (PAMPA); conditions: PAMPA, pH 7.4
Method: as §6

[7] = molecular target: T2, MAO-B (Homo sapiens, UniProt P27338); assay: MAO-B reversibility assay (pre-incubation times); type: biochemical; conditions: 0, 15, 30 min pre-incubation at […] IC50
T2 construct: purchased Sigma–Aldrich
T2 sequence (P27338 1-520): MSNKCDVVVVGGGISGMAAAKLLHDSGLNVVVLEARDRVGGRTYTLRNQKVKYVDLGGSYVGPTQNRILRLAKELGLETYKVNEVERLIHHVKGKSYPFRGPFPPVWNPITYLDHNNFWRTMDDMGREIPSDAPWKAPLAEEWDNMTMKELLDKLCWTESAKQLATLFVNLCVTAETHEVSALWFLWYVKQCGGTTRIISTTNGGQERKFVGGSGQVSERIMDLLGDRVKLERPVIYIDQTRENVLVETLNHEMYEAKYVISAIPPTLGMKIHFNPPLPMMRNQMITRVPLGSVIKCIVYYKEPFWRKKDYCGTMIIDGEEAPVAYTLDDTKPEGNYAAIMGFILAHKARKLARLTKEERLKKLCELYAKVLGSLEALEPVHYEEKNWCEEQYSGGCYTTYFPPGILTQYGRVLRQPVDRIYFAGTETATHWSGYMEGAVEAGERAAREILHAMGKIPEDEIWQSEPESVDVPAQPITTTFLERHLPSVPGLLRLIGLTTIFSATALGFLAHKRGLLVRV

[8] = 30 min pre-incubation, 37 °C, read-out: IC50 MAO-A

Row | SMILES | IC50 [1] | LD50 (µM) AREc32 [2] | Papp [3] | 6-OHDA Protection (%) [4] | IC50 [1, 8] | LD50 (µM) SH-SY5Y [5] | Papp at 4 h, 100 µM [6] | MAO-B inhibition reversibility [7]
1 | C#CCN(CC#C)CCc1c[nH]c2ccc(OC)cc12 [Compound 13, N-(2-(5-Methoxy-1H-indol-3-yl)ethyl)-N-(prop-2-yn-1-yl)prop-2-yn-1-amine] | > 100 µM | > 30 µM | 20.3 ± 7.5 ×10⁻⁶ cm/s | 87.4% |  |  |  | 
2 | C#CCN(CC#C)CCc1c[nH]c2ccc(OC(=O)C=Cc3ccccc3)cc12 [Compound 14, 3-(2-(Di(prop-2-yn-1-yl)amino)ethyl)-1H-indol-5-yl Cinnamate] |  | > 30 µM |  | 71.7% | 56.6 ± 6.3 µM | 66.5 ± 9.8 µM | 4.15 ± 1.8 ×10⁻⁶ cm/s | reversible inhibition
3 | C#CCNCCc1c[nH]c2ccc(OC)cc12 [Compound 10, N-(2-(5-Methoxy-1H-indol-3-yl)ethyl)prop-2-yn-1-amine] | 0.826 ± 0.11 µM | > 30 µM | 12.3 ± 0.62 ×10⁻⁶ cm/s | 83.5% |  |  |  | 
4 | C#CCN(CC#C)CCc1c[nH]c2ccc(OC(=O)/C=C/c3ccc(C)cc3)cc12 [Compound 15, 3-(2-(Di(prop-2-yn-1-yl)amino)ethyl)-1H-indol-5-yl-(E)-3-(p-tolyl) Acrylate] |  | > 30 µM |  | 41.5% | > 100 µM | 48.3 ± 6.6 µM | 4.46 ± 1.9 ×10⁻⁶ cm/s | 
